Data on 25 compounds can be found in ChEMBL document CHEMBL2331441, “Phosphodiesterase inhibitors. Part 5: hybrid PDE3/4 inhibitors as dual bronchorelaxant/anti-inflammatory agents for inhaled administration” (Bioorg Med Chem Lett, 2013).

The target in assay [1] is T1, 3',5'-cyclic-AMP phosphodiesterase 4B (Homo sapiens, UniProt Q07343). Nature of the assay: Inhibition of PDE4B (unknown origin) by radiochemical assay.
In assay [2] the target is cGMP-inhibited 3',5'-cyclic phosphodiesterase 3A (Homo sapiens, UniProt Q14432). Nature of the assay: Inhibition of PDE3A (unknown origin) by radiochemical assay.
Sequence of cGMP-inhibited 3',5'-cyclic phosphodiesterase 3A (Q14432 whole entry): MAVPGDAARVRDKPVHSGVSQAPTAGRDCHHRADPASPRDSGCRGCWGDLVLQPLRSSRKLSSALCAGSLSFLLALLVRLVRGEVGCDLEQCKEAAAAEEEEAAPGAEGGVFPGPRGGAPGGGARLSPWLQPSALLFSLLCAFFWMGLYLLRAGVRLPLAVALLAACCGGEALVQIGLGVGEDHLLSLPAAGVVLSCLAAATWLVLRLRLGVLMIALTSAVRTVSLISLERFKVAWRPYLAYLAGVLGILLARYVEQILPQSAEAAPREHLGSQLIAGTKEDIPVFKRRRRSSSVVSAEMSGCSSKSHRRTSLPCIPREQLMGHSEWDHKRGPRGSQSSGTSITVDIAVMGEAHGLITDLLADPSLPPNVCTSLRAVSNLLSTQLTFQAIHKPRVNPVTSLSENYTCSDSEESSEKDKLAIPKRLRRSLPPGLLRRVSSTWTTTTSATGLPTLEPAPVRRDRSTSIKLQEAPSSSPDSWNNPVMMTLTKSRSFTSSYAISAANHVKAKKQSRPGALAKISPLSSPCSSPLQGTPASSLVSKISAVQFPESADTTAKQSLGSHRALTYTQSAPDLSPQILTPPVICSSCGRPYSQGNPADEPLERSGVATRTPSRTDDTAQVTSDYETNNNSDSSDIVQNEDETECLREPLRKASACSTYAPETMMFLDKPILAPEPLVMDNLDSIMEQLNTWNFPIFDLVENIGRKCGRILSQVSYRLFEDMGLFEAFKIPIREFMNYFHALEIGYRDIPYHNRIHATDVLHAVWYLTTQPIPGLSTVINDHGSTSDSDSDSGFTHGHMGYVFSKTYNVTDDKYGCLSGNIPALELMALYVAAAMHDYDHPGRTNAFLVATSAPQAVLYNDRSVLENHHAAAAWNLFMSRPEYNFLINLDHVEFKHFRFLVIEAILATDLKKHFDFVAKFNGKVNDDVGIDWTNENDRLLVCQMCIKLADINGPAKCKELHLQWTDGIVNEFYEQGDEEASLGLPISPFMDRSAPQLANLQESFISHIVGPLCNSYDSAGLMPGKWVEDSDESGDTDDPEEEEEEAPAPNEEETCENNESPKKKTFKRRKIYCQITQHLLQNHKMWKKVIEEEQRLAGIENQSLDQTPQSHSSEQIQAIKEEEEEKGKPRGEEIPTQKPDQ
The species named for assay [3] is Homo sapiens. The assay can be described thus: Selectivity ratio of IC50 for PDE3A (unknown origin) to IC50 for PDE4B (unknown origin).
Assay [4] deals with T1, 3',5'-cyclic-AMP phosphodiesterase 4B. The assay can be described thus: Ratio of IC50 for KCA-1450 to compound IC50 for PDE4B (unknown origin) by radiochemical assay.
The subject of assay [5] is Cavia porcellus. Nature of the assay: Bronchodilatory activity in guinea pig assessed as inhibition of histamine-induced bronchoconstriction at 0.1 mg/kg, iv. The class given is functional.
Assay [6] concerns Rattus norvegicus. The assay can be described thus: Inhibition of LPS-induced leukocyte influx into rat lung at 100 ug/kg administered intratracheally 3 hrs prior LPS challenge. Particulars: inhaled or nasal. It counts as functional.

T1 sequence (Q07343 whole entry): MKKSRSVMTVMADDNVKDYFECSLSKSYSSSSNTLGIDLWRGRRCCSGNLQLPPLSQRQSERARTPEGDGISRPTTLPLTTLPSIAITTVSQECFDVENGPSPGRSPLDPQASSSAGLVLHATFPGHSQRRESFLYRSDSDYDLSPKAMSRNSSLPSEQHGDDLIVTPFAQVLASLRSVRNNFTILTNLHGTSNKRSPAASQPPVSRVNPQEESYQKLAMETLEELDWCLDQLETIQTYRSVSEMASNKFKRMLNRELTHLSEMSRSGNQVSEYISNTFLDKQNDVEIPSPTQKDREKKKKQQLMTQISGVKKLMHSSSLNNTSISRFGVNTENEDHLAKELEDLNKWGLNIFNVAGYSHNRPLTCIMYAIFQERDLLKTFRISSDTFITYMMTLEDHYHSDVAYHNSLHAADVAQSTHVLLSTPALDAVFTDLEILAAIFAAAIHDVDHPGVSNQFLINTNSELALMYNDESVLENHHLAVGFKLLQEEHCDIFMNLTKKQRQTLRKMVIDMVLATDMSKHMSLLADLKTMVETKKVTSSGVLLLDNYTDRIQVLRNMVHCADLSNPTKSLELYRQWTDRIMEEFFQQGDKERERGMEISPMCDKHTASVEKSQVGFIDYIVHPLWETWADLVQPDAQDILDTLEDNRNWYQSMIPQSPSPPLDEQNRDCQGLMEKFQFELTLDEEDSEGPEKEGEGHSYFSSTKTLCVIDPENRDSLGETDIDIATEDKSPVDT

As usually defined, the IC50 is the concentration that inhibits the measured activity by half. Low readings indicate inhibition by little substance, high ones a need for much substance. Turning to `COc1ccc(C2=NN(CCCCOc3ccc(-c4ccc(=O)[nH]n4)cc3)C(=O)CC2C)c2cc(C(F)(F)F)nn12` (stereo not given), the results for the IC50 in assay [1] and in assay [2] were 20 nM and 38000 nM, respectively.
Take `COc1ccc(C2=NN(CCCCOc3ccc(C4=NNC(=O)C4(C)C)cc3)C(=O)CC2C)c2cc(C(F)(F)F)nn12` (stereo not given): the half-inhibitory concentration (IC50) in assay [1] turned out to be 0.5 nM; in assay [2] it was 270 nM.
Regarding `COc1ccc(C2=NN(CCCCOc3cccc(C4=NNC(=O)C4(C)C)c3)C(=O)CC2C)c2cc(C(F)(F)F)nn12` (stereo not given), the IC50 was 0.064 nM in assay [1] and 1730 nM in assay [2]. The Ratio IC50 in assay [3] was determined as 10000.
For `COc1ccc(C2=NN(CCCCOc3ccc(C4=NNC(=O)C4(C)C)c(F)c3)C(=O)CC2C)c2cc(C(F)(F)F)nn12` (stereo not given), the half-maximal inhibitory concentration (IC50) in assay [1] turned out to be 0.3 nM; in assay [2], 58 nM.
For `COc1ccc(C2=NN(CCCCOc3cccc(C4=NNC(=O)CC4C)c3)C(=O)CC2C)c2cc(C(F)(F)F)nn12` (stereo not given) the same measures were 0.5 nM and 590 nM.
As to `COc1ccc(C2=NN(CCCOc3ccc(C4=NNC(=O)CC4C)cc3)C(=O)CC2C)c2cc(C(F)(F)F)nn12` (stereo not given), the IC50 in assay [1] worked out at 3 nM; in assay [2], 140 nM. The Ratio IC50 in assay [4] came to 23.
Regarding `COc1ccc(C2=NN(CCCCOc3ccc(C4=NNC(=O)C4(C)C)cc3F)C(=O)CC2C)c2cc(C(F)(F)F)nn12` (stereo not given), the IC50 came to 1.4 nM in assay [1] and 1520 nM in assay [2].
For `COc1ccc(C2=NN(CCCCOc3ccc(-c4n[nH]c(=O)cc4C)cc3)C(=O)CC2C)c2cc(C(F)(F)F)nn12` (stereo not given) the same measures were 6 nM and 40000 nM.
Usually inhibition in vivo stands for the drop in the measured response relative to a control, in per cent. Regarding `CCc1cc2c(C3=NN(CCCCOc4ccc(C5=NNC(=O)CC5C)cc4)C(=O)C3(C)C)ccc(OC)n2n1` (stereo not given), the results for the IC50 in assay [1] and in assay [2] were 0.6 nM and 1.7 nM, respectively. Further, the inhibition in vivo at 0.1 mg/kg in assay [5] came out at 92%.
For `COc1ccc(C2=NN(CCCCOc3ccc(C4=NNC(=O)C4(C)C)c(F)c3F)C(=O)C2(C)C)n2cc(C(F)(F)F)nc12` the same measures were 3.2 nM, 40 nM and 76%.
Consider `CCc1cc2c(C3=NN(CCCOc4ccc(C5=NNC(=O)CC5C)cc4)C(=O)CC3C)ccc(OC)n2n1` (stereo not given), for which the IC50 in assay [1] was 5.9 nM; in assay [2], 11 nM.
As for `COc1ccc(C2=NN(CCOc3ccc(C4=NNC(=O)CC4C)cc3)C(=O)CC2C)c2cc(C(F)(F)F)nn12` (stereo not given), the IC50 in assay [1] worked out at 0.66 nM; in assay [2] it was 130 nM. In addition, the Ratio IC50 in assay [4] turned out to be 23.
For `COc1ccc(C2=NNC(=O)CC2C)c2cc(C(F)(F)F)nn12` (racemic), the IC50 in assay [1] amounted to 70 nM; in assay [2] it was 2380 nM.
Turning to `CCc1cc2c(C3=NN(CCCCOc4ccc(C5=NNC(=O)CC5C)cc4)C(=O)CC3C)ccc(OC)n2n1` (stereo not given), the IC50 in assay [1] is 1.7 nM; in assay [2], 1.2 nM. Moreover, in assay [5], the inhibition in vivo at 0.1 mg/kg is 96%.
`COc1ccc(C2=NN(CCCCOc3ccc(C4=NNC(=O)CC4)cc3)C(=O)CC2C)c2cc(C(F)(F)F)nn12` (stereo not given): the figures for the IC50 in assay [1] and in assay [2] were 0.1 nM and 360 nM, respectively.
For the compound `CCc1cc2c(C3=NN(CCCCOc4ccc(C5=NNC(=O)CC5C)cc4)C(=O)CC3)ccc(OC)n2n1` (stereo not given), the IC50 in assay [1] was 2.7 nM; in assay [2] it was 0.27 nM. Further, in assay [5], the inhibition in vivo at 0.1 mg/kg came out at 28%.
Consider `COc1ccc(C2=NN(CCCCOc3ccc(C4=NNC(=O)C4(C)C)c(F)c3F)C(=O)CC2C)c2cc(C(F)(F)F)nn12` (stereo not given), for which the values for the IC50 in assay [1] and in assay [2] were 3.1 nM and 15 nM, respectively.
`COc1ccc(C2=NN(CCCCCOc3ccc(C4=NNC(=O)CC4C)cc3)C(=O)CC2C)c2cc(C(F)(F)F)nn12` (stereo not given): the results for the IC50 in assay [1] and in assay [2] were 0.2 nM and 72 nM, respectively. Also, in assay [4], the Ratio IC50 was 23.
With `COc1ccc(C2=NN(CCCCOc3ccc(C4=NNC(=O)CC4)c(F)c3F)C(=O)CC2C)c2cc(C(F)(F)F)nn12` (stereo not given), the concentration for half-maximal inhibition (IC50) was found to be 2.2 nM in assay [1] and 5.1 nM in assay [2].
As to `COc1ccc(C2=NN(CCCCOc3ccc(C4=NNC(=O)C4(C)C)c(F)c3F)C(=O)C2(C)C)c2sc(C(F)(F)F)nc12`, the 50% inhibitory concentration (IC50) in assay [1] stood at 0.38 nM; in assay [2], 63 nM. Besides, the inhibition in vivo at 0.1 mg/kg in assay [5] stood at 36%.
In the case of `COc1ccc(C2=NN(CCCCOc3ccc(C4=NNC(=O)CC4)c(F)c3F)C(=O)C2(C)C)n2cc(C(F)(F)F)nc12`, the IC50 in assay [1] was 6.7 nM; in assay [2], 5 nM. The inhibition in vivo at 0.1 mg/kg was determined as 87% in assay [5] and 56% in assay [6].
Turning to `COc1ccc(C2=NN(CCCCOc3ccc(C4=NNC(=O)CC4C)cc3)C(=O)CC2C)c2cc(C(F)(F)F)nn12` (stereo not given), the IC50 in assay [1] was found to be 0.3 nM; in assay [2], 15 nM. Further, in assay [4], the Ratio IC50 stood at 23.
In the case of `COc1ccc(C2=NNC(=O)C[C@@H]2C)c2cc(C(F)(F)F)nn12`, the values for the IC50 in assay [1] and in assay [2] were 42 nM and 360 nM, respectively.
On to `COc1ccc(C2=NN(CCCCOc3ccc(C4=NNC(=O)CC4)c(F)c3F)C(=O)C2(C)C)c2sc(C(F)(F)F)nc12`, for which the IC50 in assay [1] came to 0.77 nM; in assay [2], 6.9 nM. Also, the inhibition in vivo at 0.1 mg/kg in assay [5] came to 96%; in assay [6], 51%.
Regarding `CCc1cc2c(-c3ccc(=O)n(CCCCOc4ccc(C5=NNC(=O)CC5C)cc4)n3)ccc(OC)n2n1` (stereo not given), the IC50 in assay [1] came out at 20 nM; in assay [2], 2.7 nM. Also, the inhibition in vivo at 0.1 mg/kg in assay [5] was 71%.
